{"source": "paper PMC10897015", "about": "“Investigation of anti-nociceptive, anti-inflammatory potential and ADMET studies of pure compounds isolated from Isodon rugosus Wall. ex Benth” (Frontiers in Pharmacology, 2024)", "key": {"Swiss albino mice [1]": {"system": "Swiss albino mice", "test": "Formalin test with opioid receptor involvement", "type": "in vivo", "settings": "for formalin induced pain, licking time, individual values: single animals", "description": "An anti-nociceptive assessment was performed on Swiss albino mice of both sexes, sourced from the National Institute of Health, Islamabad, Pakistan. […] Mice of either sex were divided into different groups, with five mice in each group. […]\nThe analgesic activity of I. rugosus was assessed through a formalin-induced licking test. The test samples were administered orally at specified doses."}, "mice": {"system": "mice", "test": "Carrageenan-induced paw edema", "type": "in vivo", "settings": "for % edema volume inhibition (mean): aspirin 10 mg/kg; for Paw edema percent inhibition, individual values / Paw edema, individual values: single animals", "description": "The animals under study were divided into different groups. Prior to the experiment, the animals had only access to water. […] Additionally, the isolated compounds being tested were given 30 min before injecting 0.05 ml of 1% carrageenan into the sub-plantar region of the paw. To measure the volume changes in the paw, a digital plethysmometer was employed. Readings were taken before and after the carrageenan injection at hourly intervals over a total period of 5 h."}, "Swiss albino mice [2]": {"system": "Swiss albino mice", "test": "Hot plate test with opioid receptor involvement", "type": "in vivo", "settings": "for Reaction time on hot plate, individual values: single animals; for Reaction time on the hot plate: compounds 50 mg/kg, Mor 5 mg/kg, Nal 1 mg/kg"}, "Swiss albino mice [3]": {"system": "Swiss albino mice", "test": "Hot plate test, involvement of adrenergic receptors", "type": "in vivo", "settings": "single animals", "description": "The analgesic effects of the isolated compounds were measured using the hot plate method at a monitored temperature of 55 ± 0.2°C. The Swiss albino mice were positioned on the heated surface of the hot plate, and the period from placement to the onset of licking their hind paws or starting jump movements was noted as the response latency (thermal reactions). The test compounds were injected intraperitoneally. […] The animal models were checked for thermal reactions at various time intervals after sample administration.\nThe outcomes of the positive control and tested compounds were compared in animals pretreated with yohimbine. […] Additionally, clonidine at a dose of 3 μg/kg was intravenously administered. The animals were then subjected to the hot plate method, as reported before."}, "5-LOX": {"target": "T1, 5-LOX (Glycine max, UniProt P08170)", "T1 sequence (P08170 1-839)": "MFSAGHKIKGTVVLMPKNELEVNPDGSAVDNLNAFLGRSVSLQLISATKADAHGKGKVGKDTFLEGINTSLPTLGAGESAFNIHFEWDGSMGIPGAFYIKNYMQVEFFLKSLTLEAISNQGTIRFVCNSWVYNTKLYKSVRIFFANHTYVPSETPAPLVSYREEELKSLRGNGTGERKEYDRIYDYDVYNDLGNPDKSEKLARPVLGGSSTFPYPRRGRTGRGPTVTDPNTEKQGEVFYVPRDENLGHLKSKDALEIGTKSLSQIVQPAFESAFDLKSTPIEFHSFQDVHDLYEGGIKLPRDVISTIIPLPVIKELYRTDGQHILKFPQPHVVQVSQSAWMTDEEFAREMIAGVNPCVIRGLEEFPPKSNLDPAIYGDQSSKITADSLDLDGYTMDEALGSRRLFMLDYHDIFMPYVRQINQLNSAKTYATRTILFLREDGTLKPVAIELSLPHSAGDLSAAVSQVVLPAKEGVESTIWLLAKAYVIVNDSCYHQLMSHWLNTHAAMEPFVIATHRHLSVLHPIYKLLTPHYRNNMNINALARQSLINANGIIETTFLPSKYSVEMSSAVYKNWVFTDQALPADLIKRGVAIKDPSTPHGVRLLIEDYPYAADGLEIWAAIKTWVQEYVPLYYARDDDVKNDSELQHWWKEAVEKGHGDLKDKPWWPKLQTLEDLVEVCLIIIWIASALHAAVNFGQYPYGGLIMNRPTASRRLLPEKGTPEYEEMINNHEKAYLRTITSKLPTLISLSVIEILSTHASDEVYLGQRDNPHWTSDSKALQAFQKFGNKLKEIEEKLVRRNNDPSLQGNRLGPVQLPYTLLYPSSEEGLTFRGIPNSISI", "test": "Lipoxygenase (5-LOX) inhibitory activity", "type": "biochemical", "description": "The enzyme solution with a concentration of 10,000 U/ml was prepared. […] A solution (80 mM) of linoleic acid (substrate) was made. Likewise, a 50 mM phosphate buffer solution with a pH of 6.3 was prepared. The substrate, enzyme, and buffer were combined in equal proportions, each in a 2 ml volume. […] The inhibition percentage was determined by comparing the absorbance of the test samples with that of the positive control."}, "[4]": {"settings": "first phase, compounds 50 mg/kg, Mor 5 mg/kg, Nal 1 mg/kg"}, "[5]": {"settings": "second phase, compounds 50 mg/kg, Mor 5 mg/kg, Nal 1 mg/kg"}}, "note": "“And” between values parts separate entries of the source, which are not always exact repeats. Identical values can stand only once. Marks after values point to notes of the source that are not given here.", "data": [{"smiles": "O=C(O)C=Cc1ccc(O)c(O)c1", "note": "[Compound 1, 3,4-dihydroxy-cinnamic acid]", "values": [{"measurement": "formalin induced pain, licking time, individual values", "setting": "Swiss albino mice [1]; 0-5 minutes, listed as Comp 1", "result": "16.3 and 17.41 and 18.2"}, {"measurement": "formalin induced pain, licking time, individual values", "setting": "Swiss albino mice [1]; 15-30 minutes, listed as Comp 1", "result": "27.57 and 28.5 and 29.36"}, {"measurement": "Total time spent in licking 0–5 min", "setting": "Swiss albino mice [1]; [4]", "result": "17.30 ± 0.77", "unit": "s"}, {"measurement": "Total time spent in licking, % inhibition (0–5 min)", "setting": "Swiss albino mice [1]; [4]", "result": 69.45, "unit": "%"}, {"measurement": "Total time spent in licking 0–5 min", "setting": "Swiss albino mice [1]; first phase, compounds 50 mg/kg, Mor 5 mg/kg, Nal 1 mg/kg, listed as Comp 1", "result": 17.3033, "unit": "s"}, {"measurement": "Total time spent in licking 15–30 min", "setting": "Swiss albino mice [1]; [5]", "result": "28.48 ± 0.58", "unit": "s"}, {"measurement": "Total time spent in licking, % inhibition (15–30 min)", "setting": "Swiss albino mice [1]; [5]", "result": "63.97^*** %"}, {"measurement": "Total time spent in licking 15–30 min", "setting": "Swiss albino mice [1]; second phase, compounds 50 mg/kg, Mor 5 mg/kg, Nal 1 mg/kg, listed as Comp 1", "result": 28.4767, "unit": "s"}, {"measurement": "% edema volume inhibition (mean)", "setting": "mice; 1st hour after carrageenan", "result": 48.042, "unit": "%"}, {"measurement": "% edema volume inhibition (mean)", "setting": "mice; 2nd hour after carrageenan", "result": 54.02, "unit": "%"}, {"measurement": "% edema volume inhibition (mean)", "setting": "mice; 3rd hour after carrageenan", "result": 54.008, "unit": "%"}, {"measurement": "% edema volume inhibition (mean)", "setting": "mice; 4th hour after carrageenan", "result": "56.40 ± 0.42", "unit": "%"}, {"measurement": "% edema volume inhibition (mean)", "setting": "mice; 4th hour after carrageenan, listed as Comp 1", "result": 56.094, "unit": "%"}, {"measurement": "% edema volume inhibition (mean)", "setting": "mice; 5th hour after carrageenan", "result": 53.076, "unit": "%"}, {"measurement": "paw edema inhibition", "setting": "mice; at various intervals", "result": "> 50", "unit": "%"}, {"measurement": "Paw edema percent inhibition, individual values", "setting": "mice; hour 1, listed as Comp 1", "result": "50.39% and 48.96% and 47.65% and 47.13% and 46.08%"}, {"measurement": "Paw edema, individual values", "setting": "mice; hour 1, listed as Comp 1", "result": "0.38 and 0.391 and 0.401 and 0.405 and 0.413"}, {"measurement": "Paw edema percent inhibition, individual values", "setting": "mice; hour 2, listed as Comp 1", "result": "53.99% and 52.64% and 55.48% and 52.1% and 55.89%"}, {"measurement": "Paw edema, individual values", "setting": "mice; hour 2, listed as Comp 1", "result": "0.34 and 0.35 and 0.329 and 0.354 and 0.326"}, {"measurement": "Paw edema percent inhibition, individual values", "setting": "mice; hour 3, listed as Comp 1", "result": "54.46% and 55.39% and 53.53% and 52.73% and 53.93%"}, {"measurement": "Paw edema, individual values", "setting": "mice; hour 3, listed as Comp 1", "result": "0.342 and 0.335 and 0.349 and 0.355 and 0.346"}, {"measurement": "Paw edema percent inhibition, individual values", "setting": "mice; hour 4, listed as Comp 1", "result": "56.75% and 58.72% and 56.09% and 54.78% and 54.13%"}, {"measurement": "Paw edema, individual values", "setting": "mice; hour 4, listed as Comp 1", "result": "0.33 and 0.315 and 0.335 and 0.345 and 0.35"}, {"measurement": "Paw edema percent inhibition, individual values", "setting": "mice; hour 5, listed as Comp 1", "result": "54.17% and 56.22% and 50.75% and 53.76% and 50.48%"}, {"measurement": "Paw edema, individual values", "setting": "mice; hour 5, listed as Comp 1", "result": "0.335 and 0.32 and 0.36 and 0.338 and 0.362"}, {"measurement": "Reaction time on hot plate, individual values", "setting": "Swiss albino mice [2]; at 15, listed as Comp-1", "result": "8.02 and 7.34 and 9.3"}, {"measurement": "Reaction time on hot plate, individual values", "setting": "Swiss albino mice [2]; at 30, listed as Comp-1", "result": "7.19 and 7.2 and 7.18"}, {"measurement": "Reaction time on hot plate, individual values", "setting": "Swiss albino mice [2]; at 45, listed as Comp-1", "result": "6.4 and 7.3 and 6.26"}, {"measurement": "Reaction time on hot plate, individual values", "setting": "Swiss albino mice [2]; at 60, listed as Comp-1", "result": "8.1 and 9.57 and 7.46"}, {"measurement": "Reaction time on hot plate, individual values", "setting": "Swiss albino mice [2]; at 90, listed as Comp-1", "result": "6.12 and 7.38 and 8.02"}, {"measurement": "Reaction time on the hot plate", "setting": "Swiss albino mice [2]; at 15 min", "result": "08.22 ± 0.07", "unit": "s"}, {"measurement": "Reaction time on the hot plate", "setting": "Swiss albino mice [2]; at 15 min, listed as Comp-1", "result": 8.22, "unit": "s"}, {"measurement": "Reaction time on the hot plate", "setting": "Swiss albino mice [2]; at 15 min, listed as compound 1", "result": "08.22 ± 0.07", "unit": "s"}, {"measurement": "Reaction time on the hot plate", "setting": "Swiss albino mice [2]; at 30 min", "result": "07.19 ± 0.08", "unit": "s"}, {"measurement": "Reaction time on the hot plate", "setting": "Swiss albino mice [2]; at 30 min, listed as Comp-1", "result": 7.19, "unit": "s"}, {"measurement": "Reaction time on the hot plate", "setting": "Swiss albino mice [2]; at 30 min, listed as compound 1", "result": "07.19 ± 0.08", "unit": "s"}, {"measurement": "Reaction time on the hot plate", "setting": "Swiss albino mice [2]; at 45 min", "result": "6.65 ± 0.05", "unit": "s"}, {"measurement": "Reaction time on the hot plate", "setting": "Swiss albino mice [2]; at 45 min, listed as Comp-1", "result": 6.653, "unit": "s"}, {"measurement": "Reaction time on the hot plate", "setting": "Swiss albino mice [2]; at 45 min, listed as compound 1", "result": "6.65 ± 0.05", "unit": "s"}, {"measurement": "Reaction time on the hot plate", "setting": "Swiss albino mice [2]; at 60 min", "result": "8.38 ± 0.41", "unit": "s"}, {"measurement": "Reaction time on the hot plate", "setting": "Swiss albino mice [2]; at 60 min, listed as Comp-1", "result": 8.377, "unit": "s"}, {"measurement": "Reaction time on the hot plate", "setting": "Swiss albino mice [2]; at 60 min, listed as compound 1", "result": "8.38 ± 0.41", "unit": "s"}, {"measurement": "Reaction time on the hot plate", "setting": "Swiss albino mice [2]; at 90 min", "result": "7.17 ± 0.57", "unit": "s"}, {"measurement": "Reaction time on the hot plate", "setting": "Swiss albino mice [2]; at 90 min, listed as Comp-1", "result": 7.173, "unit": "s"}, {"measurement": "Reaction time on the hot plate", "setting": "Swiss albino mice [2]; at 90 min, listed as compound 1", "result": "7.17 ± 0.57", "unit": "s"}, {"measurement": "Hot plate analysis (adrenergic), individual values", "setting": "Swiss albino mice [3]; 30 Minutes", "result": "4.43 and 5.1 and 6.1"}, {"measurement": "Hot plate analysis (adrenergic), individual values", "setting": "Swiss albino mice [3]; 45 Minutes", "result": "6.87 and 5.78 and 7.3"}, {"measurement": "Hot plate analysis (adrenergic), individual values", "setting": "Swiss albino mice [3]; 15 minutes", "result": "6.2 and 4.27 and 5.81"}, {"measurement": "Hot plate analysis (adrenergic), individual values", "setting": "Swiss albino mice [3]; 60 minutes", "result": "5.1 and 5.99 and 6.59"}, {"measurement": "Hot plate analysis (adrenergic), individual values", "setting": "Swiss albino mice [3]; 90 minutes", "result": "4.1 and 4.82 and 5.34"}, {"measurement": "inhibition at 62.5 µg/mL", "setting": "5-LOX; read-out: % inhibition 5-LOX (mean ± SEM), 62.5 µg/ml", "result": "59.4 ± 0.65", "unit": "%"}, {"measurement": "inhibition at 250 µg/mL", "setting": "5-LOX; read-out: % inhibition 5-LOX (mean ± SEM), 250 µg/ml", "result": "66.9 ± 1.04", "unit": "%"}, {"measurement": "inhibition at 500 µg/mL", "setting": "5-LOX; read-out: % inhibition 5-LOX (mean ± SEM), 500 µg/ml", "result": "71.8 ± 0.55", "unit": "%"}, {"measurement": "inhibition at 1000 µg/mL", "setting": "5-LOX; read-out: % inhibition 5-LOX (mean ± SEM), 1000 µg/ml", "result": "77 ± 1.49", "unit": "%"}]}]}
